# In patent publication US5798442A, “Peptidyl derivatives as inhibitors of pro-apoptotic cysteine proteinases” (Merck Frosst Canada, Inc., priority 1995, dated 1998):
# Entries after “also recorded” stand apart in the source; their conditions may differ.
# Experiments:
# apopain/CPP32 = target: T1, apopain/CPP32 (Homo sapiens, UniProt P42574); assay: continuous fluorometric assay with Ac-DEVD-AMC and purified apopain; type: biochemical
# T1 construct: cleavage between Asp^28 -Ser^29 and Asp^175 -Ser^176; cleavage sites which yield the p17 and p12 subunits from the CPP32 proenzyme; endogenous in cells; host or cells: THP-1 cells (ATCC TIB 202)
# T1 sequence (P42574 29-175 limits assumed): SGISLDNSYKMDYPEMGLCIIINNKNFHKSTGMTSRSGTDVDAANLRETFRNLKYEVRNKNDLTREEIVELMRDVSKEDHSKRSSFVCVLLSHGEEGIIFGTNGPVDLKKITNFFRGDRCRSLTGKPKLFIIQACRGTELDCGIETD
# T1 sequence (P42574 176-277 limits assumed): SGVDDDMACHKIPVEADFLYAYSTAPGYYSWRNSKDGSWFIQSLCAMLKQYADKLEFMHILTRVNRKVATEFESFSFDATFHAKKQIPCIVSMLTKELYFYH
# intact cells = assay: activity in intact cells; type: cell-based
# [1] = target: T2, PARP cleavage activity in apoptotic osteosarcoma cell extracts (Homo sapiens, UniProt P42574); assay: [35S]PARP cleavage by cytosolic extracts of apoptotic osteosarcoma cells; type: biochemical; details: for IC50: apoptotic osteosarcoma cell extracts, [35S]PARP, read-out: IC50 for inhibition of PARP cleavage activity; for effect on proteolytic cleavage of PARP: FIG. 2a, 5 mM N-ethylmaleimide, 5 mM iodoacetamide, 10 μM E-64
# T2 construct: 10 μg protein from the cytosol fraction of apoptotic osteosarcoma cells (from 7 day, post-confluent cultures); endogenous in cells; host or cells: human osteosarcoma cells 143.98.2 (ATCC CRL 11226), 7 day post-confluent (apoptotic), cytosol fraction
# T2 sequence (P42574 29-175 limits assumed): T1 sequence (P42574 29-175 limits assumed)
# T2 sequence (P42574 176-277 limits assumed): T1 sequence (P42574 176-277 limits assumed)
Compound,IC50 [1] [µM],effect on proteolytic cleavage of PARP [1],also measured
"CC(=O)N[C@@H](CC(=O)O)C(=O)N[C@@H](CCC(=O)O)C(=O)N[C@H](C(=O)NC(C=O)CC(=O)O)C(C)C (stereo partly drawn) [Ac-DEVD-CHO, N-(N-Acetyl-L-aspartyl-L-glutamyl-L-valinyl)-3-amino-3-formylpropionic acid]",,,"enzyme activity at infinite time (apopain/CPP32; 50 nM inhibitor, 1×Km Ac-DEVD-AMC): complete inhibition; also recorded: nearly complete suppression; activity in intact cells (intact cells): inactive; membrane permeability (intact cells): membrane impermeable"
"CC(=O)N[C@@H](CC(=O)O)C(=O)N[C@@H](CCC(=O)O)C(=O)N[C@H](C(=O)N[C@@H](CC(=O)O)C(=O)O)C(C)C [Ac-DEVD-COOH, N-Acetyl-aspartyl-glutamyl-valinyl-aspartic acid]",> 10,,
CC(=O)N[C@@H](Cc1ccc(O)cc1)C(=O)N[C@H](C(=O)N[C@@H](C)C(=O)N[C@H](C=O)CC(=O)O)C(C)C [Ac-YVAD-CHO],> 10,,Ki (apopain/CPP32): 12 µM
CC(C)C[C@H](NC(=O)[C@H]1O[C@@H]1C(=O)O)C(=O)NCCCCN=C(N)N [Example E-64],,not,
CCN1C(=O)C=CC1=O [N-ethylmaleimide],,abolished,
NC(=O)CI [iodoacetamide],,abolished,
